Measured values published in PMC7279038, “Antioxidant and Neuroprotective Effects Induced by Cannabidiol and Cannabigerol in Rat CTX-TNA2 Astrocytes and Isolated Cortexes” (International Journal of Molecular Sciences, 2020).

Key:
[1] = tested on: calcium/calmodulin-dependent protein kinase type II subunit alpha (CAMK2A); assay: Untargeted proteomic analysis of cortexes, CAMK2A; parameters: species or system rat; settings: CBD 1000 nM, CBG 1 nM
Description: Sprague–Dawley rats (200–250 g) were sacrificed by CO2 inhalation (Italian Health Ministry authorization N. F4738.N.XTQ, delivered on 11th November 2018) and isolated prefrontal cortex specimens were immediately explanted and incubated in thermostatic shaking bath at 37 °C for 1 h (incubation period), in Krebs–Ringer buffer at the following K^+ concentrations:
Cortexes were stimulated with CBD (1000 nM) and CBD (1 nM). Afterwards, specimens were homogenized in perchloric acid solution (0.05 M) for the extraction and quantification of nitrites, via the aforementioned colorimetric Griess assay, and serotonin (5-HT), 5-hydroxyindoleacetic (5HIIA),3-hydroxykinurenine (3-HK) and kinurenic acid (KA) (ng/mg wet tissue) via high performance liquid chromatography analysis. Additionally, an untargeted proteomic analysis was carried out on the cortex homogenate. The analytical protocols for 5-HT, 5HIIA, 3-HK, KA and protein level determinations are described below. […]
After protein quantification, a volume corresponding to 50 μg of proteins was loaded onto a Nanosep 10-kDa-cutoff filter (Pall Corporation, Michigan, USA) and digested according to the protocol we routinely use in our laboratory, adapted from Distler et al. Briefly, the sample was washed twice with 200 μL urea buffer (8M urea, 100 mM Tris pH 8.5 in milliQ water) to remove the detergents present in the lysis buffer. […]

Bax = assay: Western blotting analysis of Bax; format: cell-based, rat; settings: CTX-TNA2 challenged with H2O2, 24 h; 1000 nM CBD, 1 nM CBG
Description: […] The stock solutions were diluted in cell medium to the point that the concentration of DMSO in the samples was less than 0.0003%. Therefore, the addition of DMSO to the control samples was not necessary.
The western blowing analysis of Bax and Cyt C was carried out as previously reported. Specifically, CTX-TNA2 lysates (20 µg) were boiled fof 5 min in sample buffer, made of tris-HCl pH 6.8, glycerol, 2-mercaptoethanol, SDS and bromophenol blue. They were then electrophoresed and transferred to nitrocellulose membranes. […] Immunoreactive bands were identified using the ECL detection system (Euroclone, Pero, Milano, Italy) and analyzed by densitometry. Densitometric values were quantified by the CHEMIDOC XRS system and expressed as Integrated Optical Intensity using the QuantiOne 1-D analysis software (Bio-rad Laboratories, Richmond, CA, USA). […] Results are expressed as the mean ± SD.

[2] = Ferric reducing antioxidant power (FRAP); settings: mean ± S.D., n = 3
Description: For the ferric reducing antioxidant power (FRAP) activity assay, sample solution was added to premixed FRAP reagent (2 mL) containing acetate buffer (0.3 M, pH 3.6), 2,4,6-tris(2-pyridyl)-S-triazine (TPTZ) (10 mM) in 40 mM HCl and ferric chloride (20 mM) in a ratio of 10:1:1 (v/v/v). Then, the sample absorbance was read at 593 nm after a 30 min incubation at room temperature. FRAP activity was expressed as IC50 values.

[3] = tested on: isolated rat prefrontal cortex, nitrite; assay: H2O2-induced nitrite level in isolated cortexes (Griess assay); settings: hydrogen peroxide 300 µM; for inhibition of H2O2-induced increase in nitrite level: 1–1000 nM
Description: Sprague–Dawley rats (200–250 g) were sacrificed by CO2 inhalation and isolated prefrontal cortex specimens were immediately explanted and exposed to 300 µM H2O2 and different concentrations of CBD (1–1000 nM) and CBG (1–1000 nM) for one hour, at 37 °C. The nitrite concentration in the resuspension buffer was determined by colorimetric Griess assay. Specifically, cortex specimens were homogenized for 2 min with Potter–Elvehjem homogenizer in 2 mL DMEM buffer. The homogenate was centrifuged at 4500 g for 10 min and nitrite production was determined in the supernatant fraction by mixing 50 µL of the assay buffer with 50 µL of Griess reagent (1.5% sulfanilamide in 1M HCl plus 0.15% N-(1-naphthyl) ethylenediamine dihydrochloride in distilled water, v/v). After 10 min incubation at room temperature, the absorbance at 540 nm was determined and nitrite concentrations were calculated from a sodium nitrite standard curve. All measurements were performed in triplicate.

Compound	effect on K+ 60 mM-induced reduction in CAMK2A level [1]	Bax expression (Bax)	IC50 [2]	inhibition of H2O2-induced increase in nitrite level [3]	concentration of maximal inhibition of nitrite production ([3]; tested 1–1000 nM)
CCCCCc1cc(O)c(C/C=C(\C)CCC=C(C)C)c(O)c1 [CBG, cannabigerol]	completely ineffective	expression does not differ from the control sample	> 2 mM	significant at the two lowest tested concentrations only	1 nM
C=C(C)[C@@H]1CCC(C)=C[C@H]1c1c(O)cc(CCCCC)cc1O [CBD, Cannabidiol]	blocking the downregulation	keep Bax expression at values comparable to the control sample	> 2 mM	inhibit such an increase at all the tested concentrations	–
